{
  "source": "patent US20260240755A1",
  "about": "“Use Of Plant Cell Suspension Extracellular Vesicle-Derived Small Rnas As Cosmetic Active Ingredient” (ACTV BiYOTEKNOLOJi LABORATUVAR SANAYi VE TiCARET ANONiM …, priority 2023, published 2026)",
  "key": {"[1]": {"tested_on": "H. cordata cell suspension", "assay": "Elicitor effect on amount of small RNA from cell suspension EVs", "format": "cell-based, Houttuynia cordata", "conditions": "for amount of RNA obtained from nutrient medium EVs compared to the control group: elicitor added on the 14th day, 0.2-0.8 mM, 1-3 days"}, "[2]": {"tested_on": "H. cordata cell suspension", "assay": "Elicitor effect on cell suspension biomass (lyophilized cell weight)", "format": "cell-based, Houttuynia cordata", "conditions": "elicitor treatment", "description": "On the 14th day of the culture, the cell suspension medium was supplemented with 0.2-0.4 and 0.8 mM MeJA or SA, and the suspensions were subjected to additional incubation for 1, 2, and 3 days. After the incubation periods of H. cordata cell suspension cultures were completed, the cells were passed through a filter, and the cultures were terminated. Subsequently, cells from all groups were lyophilized. The weights of the lyophilized cells were measured and recorded."}},
  "data": [
    {"smiles": "CC/C=C\\CC1C(=O)CCC1CC(=O)OC", "note": "(stereo not drawn) [MeJA, Methyl jasmonate]", "values": [
      {"measurement": "amount of small RNA obtained", "setting": "[1]; 0.2 mM MeJA for 72 hours", "result": 3000, "unit": "ng/µL"},
      {"measurement": "amount of small RNA relative to the control group", "setting": "[1]; 0.2 mM MeJA for 72 hours", "result": 1.9, "unit": "times"},
      {"measurement": "amount of RNA obtained from nutrient medium EVs compared to the control group", "setting": "[1]", "result": "led to an increase"},
      {"measurement": "quantity of H. cordata cell suspensions (lyophilized cell weight) compared to the control group", "setting": "[2]", "result": "No statistically significant difference"}
    ]},
    {"smiles": "O=C(O)c1ccccc1O", "note": "[SA, Salicylic acid]", "values": [
      {"measurement": "amount of RNA obtained from nutrient medium EVs compared to the control group", "setting": "[1]", "result": "did not result in a significant increase"},
      {"measurement": "quantity of H. cordata cell suspensions (lyophilized cell weight) compared to the control group", "setting": "[2]", "result": "No statistically significant difference"}
    ]}
  ]
}
